Experimental data from patent publication US20240398805A1, “QUINAZOLINE DERIVED COMPOUNDS AS EGFR INHIBITORS AND THEIR USES THEREOF” (ACCUTAR BIOTECHNOLOGY INC., priority 2021, published 2024).

Legend:
Format in all cases: cell-based
HCC827 cells = assay: Cell growth inhibition (CellTiter-Glo, 3 days) in HCC827; conditions: Homo sapiens, 72 h, 3 days after administration
How it was run: (§1)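 Growth inhibition was scored by CellTiter-Glo luminescence after 3-day compound exposure at various concentrations. Cells were plated at 5000/well the day before treatment: A431 in DMEM and HCC827 in RPMI, each with 10% FBS.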

[1] = tested on: HCC827-SVD cells (human EGFR exon 20 insertion mutant D770_N771 insSVD); assay: Cell growth inhibition (CellTiter-Glo, 3 days) in HCC827-SVD; conditions: 72 h, 3 days after administration
How it was run: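 HCC827 cells carrying lentiviral codon-optimized EGFR D770_N771 insSVD, with endogenous EGFR knocked out by CRISPR (single clone), seeded at 5000 cells/well in RPMI with 10% FBS. Viability read by CellTiter-Glo luminescence.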

[2] = tested on: HCC827-ASV cells (human EGFR exon 20 insertion mutant A769_D770insASV); assay: Cell growth inhibition (CellTiter-Glo, 3 days) in HCC827-ASV; conditions: 72 h, 3 days after administration
How it was run: (§2)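 Growth inhibition used a CellTiter-Glo luminescence read-out after 3 days of compound exposure at various concentrations. Cells were plated the day before at 5000/well in RPMI plus 10% FBS. The lines are HCC827 transduced by lentivirus with codon-optimized EGFR ASV or ERBB2 YVMA exon 20 insertions.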

[3] = tested on: HCC827-YVMA cells (human ERBB2 exon20 insertion mutant A775_G776ins YVMA); assay: Cell growth inhibition (CellTiter-Glo, 3 days) in HCC827-YVMA; conditions: 72 h, 3 days after administration
How it was run: as §2

A431 cells = assay: Cell growth inhibition (CellTiter-Glo, 3 days) in A431; conditions: Homo sapiens, A-431, 72 h, 3 days after administration
How it was run: as §1

Row | SMILES | GI50 (HCC827 cells) [µM] | GI50 [1] [µM] | GI50 [2] [µM] | GI50 [3] [µM] | GI50 (A431 cells) [µM]
1 | C=CC(=O)N1CCC(Nc2cc3c(Nc4ccc(Oc5ccnc(N6CCOC[C@@H]6C)c5)cc4F)ncnc3cc2OC)CC1 [Example 135, (S)-1-(4-((4-((2-fluoro-4-((2-(3-methylmorpholino)pyridin-4-yl)oxy)phenyl)amino)-7-methoxyquinazolin-6-yl)amino)piperidin-1-yl)prop-2-en-1-one] | 0.3 to 0.6 | 0.06 to 0.1 | < 0.03 | 0.03 to 0.06 | ≥ 1
2 | C=CC(=O)N1CCC(Nc2cc3c(Nc4ccc(Oc5ccnc(N6C7CCC6COC7)c5)cc4F)ncnc3cc2OC)CC1 [Example 136, 1-(4-((4-((4-((2-(3-oxa-8-azabicyclo[3.2.1]octan-8-yl)pyridin-4-yl)oxy)-2-fluorophenyl)amino)-7-methoxyquinazolin-6-yl)amino)piperidin-1-yl)prop-2-en-1-one] | 0.3 to 0.6 | 0.03 to 0.06 | 0.03 to 0.06 | 0.03 to 0.06 | 0.6 to 1
3 | C=CC(=O)N1CCC(Nc2cc3c(Nc4ccc(Oc5ccnc(N6CCOC[C@H]6C)c5)cc4F)ncnc3cc2OC)CC1 [Example 137, (R)-1-(4-((4-((2-fluoro-4-((2-(3-methylmorpholino)pyridin-4-yl)oxy)phenyl)amino)-7-methoxyquinazolin-6-yl)amino)piperidin-1-yl)prop-2-en-1-one] | ≥ 1 | 0.1 to 0.3 | 0.1 to 0.3 | 0.3 to 0.6 | ≥ 1
4 | C=CC(=O)N1CCC(Nc2cc3c(Nc4ccc(Oc5ccnc(N6CCOC(C)(C)C6)c5)cc4F)ncnc3cc2OC)CC1 [Example 138, 1-(4-((4-((4-((2-(2,2-dimethylmorpholino)pyridin-4-yl)oxy)-2-fluorophenyl)amino)-7-methoxyquinazolin-6-yl)amino)piperidin-1-yl)prop-2-en-1-one] | 0.1 to 0.3 | < 0.03 | < 0.03 | < 0.03 | ≥ 1
5 | C=CC(=O)N1CCC(Nc2cc3c(Nc4ccc(Oc5ccnc(N6CC(O)C6)c5)cc4F)ncnc3cc2OC)CC1 [Example 139, 1-(4-((4-((2-fluoro-4-((2-(3-hydroxyazetidin-1-yl)pyridin-4-yl)oxy)phenyl)amino)-7-methoxyquinazolin-6-yl)amino)piperidin-1-yl)prop-2-en-1-one] | 0.1 to 0.3 | 0.1 to 0.3 | 0.06 to 0.1 | 0.1 to 0.3 | 0.3 to 0.6
6 | C=CC(=O)N1CCC(Nc2cc3c(Nc4ccc(Oc5ccnc(N6CC(CO)C6)c5)cc4F)ncnc3cc2OC)CC1 [Example 140, 1-(4-((4-((2-fluoro-4-((2-(3-(hydroxymethyl)azetidin-1-yl)pyridin-4-yl)oxy)phenyl)amino)-7-methoxyquinazolin-6-yl)amino)piperidin-1-yl)prop-2-en-1-one] | 0.6 to 1 | 0.1 to 0.3 | 0.1 to 0.3 | 0.3 to 0.6 | 0.6 to 1
7 | C=CC(=O)N1CCC(Nc2cc3c(Nc4ccc(Oc5ccnc(N6CC(C#N)C6)c5)cc4F)ncnc3cc2OC)CC1 [Example 141, 1-(4-(4-((6-((1-acryloylpiperidin-4-yl)amino)-7-methoxyquinazolin-4-yl)amino)-3-fluorophenoxy)pyridin-2-yl)azetidine-3-carbonitrile] | 0.1 to 0.3 | 0.03 to 0.06 | < 0.03 | 0.03 to 0.06 | ≥ 1
8 | C=CC(=O)N1CCC(Nc2cc3c(Nc4ccc(Oc5ccnc(N6CC(COC)C6)c5)cc4F)ncnc3cc2OC)CC1 [Example 142, 1-(4-((4-((2-fluoro-4-((2-(3-(methoxymethyl)azetidin-1-yl)pyridin-4-yl)oxy)phenyl)amino)-7-methoxyquinazolin-6-yl)amino)piperidin-1-yl)prop-2-en-1-one] | 0.1 to 0.3 | < 0.03 | < 0.03 | < 0.03 | ≥ 1
9 | C=CC(=O)N1CCC(Nc2cc3c(Nc4ccc(Oc5ccnc(N6CC(S(C)(=O)=O)C6)c5)cc4F)ncnc3cc2OC)CC1 [Example 143, 1-(4-((4-((2-fluoro-4-((2-(3-(methylsulfonyl)azetidin-1-yl)pyridin-4-yl)oxy)phenyl)amino)-7-methoxyquinazolin-6-yl)amino)piperidin-1-yl)prop-2-en-1-one] | ≥ 1 | 0.3 to 0.6 | 0.3 to 0.6 | 0.3 to 0.6 | ≥ 1
10 | C=CC(=O)N1CCC(Nc2cc3c(Nc4ccc(Oc5ccnc(N6CC(C(N)=O)C6)c5)cc4F)ncnc3cc2OC)CC1 [Example 144, 1-(4-(4-((6-((1-acryloylpiperidin-4-yl)amino)-7-methoxyquinazolin-4-yl)amino)-3-fluorophenoxy)pyridin-2-yl)azetidine-3-carboxamide] | ≥ 1 | 0.6 to 1 | 0.6 to 1 | ≥ 1 | ≥ 1
11 | C=CC(=O)N1CCC(Nc2cc3c(Nc4ccc(Oc5ccnc(N6CC(NC(C)=O)C6)c5)cc4F)ncnc3cc2OC)CC1 [Example 145, N-(1-(4-(4-((6-((1-acryloylpiperidin-4-yl)amino)-7-methoxyquinazolin-4-yl)amino)-3-fluorophenoxy)pyridin-2-yl)azetidin-3-yl)acetamide] | ≥ 1 | ≥ 1 | ≥ 1 | ≥ 1 | ≥ 1
12 | C=CC(=O)N1CCC(Nc2cc3c(Nc4ccc(Oc5ccnc(N6CC(C(C)(C)O)C6)c5)cc4F)ncnc3cc2OC)CC1 [Example 146, 1-(4-((4-((2-fluoro-4-((2-(3-(2-hydroxypropan-2-yl)azetidin-1-yl)pyridin-4-yl)oxy)phenyl)amino)-7-methoxyquinazolin-6-yl)amino)piperidin-1-yl)prop-2-en-1-one] | 0.6 to 1 | 0.06 to 0.1 | 0.06 to 0.1 | 0.1 to 0.3 | ≥ 1
13 | C=CC(=O)N1CCC(Nc2cc3c(Nc4ccc(Oc5ccnc(N6CC(N(C)C)C6)c5)cc4F)ncnc3cc2OC)CC1 [Example 147, 1-(4-((4-((4-((2-(3-(dimethylamino)azetidin-1-yl)pyridin-4-yl)oxy)-2-fluorophenyl)amino)-7-methoxyquinazolin-6-yl)amino)piperidin-1-yl)prop-2-en-1-one] | 0.1 to 0.3 | 0.06 to 0.1 | 0.06 to 0.1 | 0.06 to 0.1 | ≥ 1
14 | C=CC(=O)N1CCC(Nc2cc3c(Nc4ccc(Oc5ccnc(N6CC(OC(C)C)C6)c5)cc4F)ncnc3cc2OC)CC1 [Example 148, 1-(4-((4-((2-fluoro-4-((2-(3-isopropoxyazetidin-1-yl)pyridin-4-yl)oxy)phenyl)amino)-7-methoxyquinazolin-6-yl)amino)piperidin-1-yl)prop-2-en-1-one] | 0.1 to 0.3 | 0.03 to 0.06 | 0.03 to 0.06 | 0.03 to 0.06 | 0.3 to 0.6
15 | C=CC(=O)N1CCC(Nc2cc3c(Nc4ccc(Oc5ccnc(N6CCC(C)(O)C6)c5)cc4F)ncnc3cc2OC)CC1 (centres unmarked) [Example 149, 1-(4-((4-((2-fluoro-4-((2-(3-hydroxy-3-methylpyrrolidin-1-yl)pyridin-4-yl)oxy)phenyl)amino)-7-methoxyquinazolin-6-yl)amino)piperidin-1-yl)prop-2-en-1-one] | 0.1 to 0.3 | 0.03 to 0.06 | 0.03 to 0.06 | 0.06 to 0.1 | 0.1 to 0.3
16 | C=CC(=O)N1CCC(Oc2cc3c(Nc4ccc(Oc5ccnc(N6C[C@@H](C)O[C@@H](C)C6)c5)cc4F)ncnc3cc2OC)CC1 [Example 152, 1-(4-((4-((4-((2-((2R,6S)-2,6-dimethylmorpholino)pyridin-4-yl)oxy)-2-fluorophenyl)amino)-7-methoxyquinazolin-6-yl)oxy)piperidin-1-yl)prop-2-en-1-one] | 0.6 to 1 | 0.06 to 0.1 | < 0.03 | 0.06 to 0.1 | ≥ 1
17 | C=CC(=O)N1CCC(Nc2cc3c(Nc4ccc(Oc5ccnc(N6CCC(C)(C)C6)c5)cc4F)ncnc3cc2OC)CC1 [Example 153, 1-(4-((4-((4-((2-(3,3-dimethylpyrrolidin-1-yl)pyridin-4-yl)oxy)-2-fluorophenyl)amino)-7-methoxyquinazolin-6-yl)amino)piperidin-1-yl)prop-2-en-1-one] | < 0.03 | < 0.03 | < 0.03 | 0.03 to 0.06 | 0.3 to 0.6
18 | C=CC(=O)N1CCC(Nc2cc3c(Nc4ccc(Oc5ccnc(N6C[C@@H](C)N[C@@H](C)C6)c5)cc4F)ncnc3cc2OC)CC1 [Example 154, 1-(4-((4-((4-((2-((3R,5S)-3,5-dimethylpiperazin-1-yl)pyridin-4-yl)oxy)-2-fluorophenyl)amino)-7-methoxyquinazolin-6-yl)amino)piperidin-1-yl)prop-2-en-1-one] | ≥ 1 | 0.3 to 0.6 | 0.1 to 0.3 | 0.3 to 0.6 | ≥ 1
19 | C=CC(=O)N1CCC(Nc2cc3c(Nc4ccc(Oc5ccnc(N6CCC(CO)(CO)C6)c5)cc4F)ncnc3cc2OC)CC1 [Example 155, 1-(4-((4-((4-((2-(3,3-bis(hydroxymethyl)pyrrolidin-1-yl)pyridin-4-yl)oxy)-2-fluorophenyl)amino)-7-methoxyquinazolin-6-yl)amino)piperidin-1-yl)prop-2-en-1-one] | ≥ 1 | 0.1 to 0.3 | 0.1 to 0.3 | 0.1 to 0.3 | ≥ 1
